Article PMC5702336, “Critical Role of Hepatic Cyp450s in the Testis-Specific Toxicity of (5R)-5-Hydroxytriptolide in C57BL/6 Mice” (Frontiers in Pharmacology, 2017)

Assays:
[1] = Toxicokinetics of LLDT-8 in WT and liver-Cpr KO mice after a single oral dose (plasma and tissue levels by LC-MS/MS); format: in vivo, mouse; details: for T1/2: mean ± SD, n = 5
Experimental: For toxicokinetic experiments, mice (n = 5–6/group for each time point) were treated with a single dose of LLDT-8 at (0.5 or 1.0 mg/kg) by oral gavage, creating 4 treatment groups: 0.5 mg/kg LLDT-8-treated WT and KO mice, and 1.0 mg/kg LLDT-8-treated WT and KO mice. After LLDT-8 treatment, 20 μL blood samples were collected at 5, 10, 20, 30, 45, 60, 90, 120, and 180 min from tail vein. Plasma was separated by centrifugation at 3,000 rpm for 5 min and kept at −80°C until analysis. Tissues including the liver, kidney, testes, and epididymis were also collected from individual mice at 30 and 180 min after dosing and were weighed and homogenized in saline (1.0 g wet weight/mL) on ice. LLDT-8 was then extracted from the plasma or the tissue homogenates with an equal volume of ethyl acetate and dried under nitrogen. The residues were reconstituted in 50 μL of mobile phase for analysis.
The quantification of LLDT-8 in samples was performed on Shimadzu 20A HPLC system (Shimadzu, Kyoto, Japan) equipped with an autosampler coupled to Shimadzu 8030 triple quadrupole mass spectrometer (Shimadzu, Kyoto, Japan). Separations were conducted under isocratic conditions. The mobile phase consisting of acetonitrile and water with 0.1% formic acid (50:50, v/v) was set at a flow rate of 0.2 mL/min. An electrospray interface in negative ionization mode was used. ESI source parameters were as followed: high purity drying-gas (N2) flow rate 8 L/min, temperature 400°C, nebulizer pressure 25 psi. Multiple reaction monitoring (MRM) was used to quantify LLDT-8 (m/z 421.20 [M+COO]- → 45.10, fragmentor 110 eV, collision energy −20 eV). Analytical data were processed using the labsolution software package (Shimadzu, Kyoto, Japan) consisting of qualitative and quantitative software.
Standard curves for LLDT-8 were prepared by spiking known amounts of the LLDT-8 standard into plasma or tissue homogenate samples prepared from untreated mice. LLDT-8 concentrations in biological samples were determined by comparisons with standard curves. Pharmacokinetics were calculated using Kinetica software (version 4.4.1; Thermo Fisher Scientific Inc, Woburn, MA).

[2] = system: GC-2spd cells; experiment: Pol II protein level in spermatocyte-like cells (western blot); format: cell-based, mouse
Experimental: Mouse GC-1spg (spermatogonia-like, ATCC number: CRL-2053), TM4 (Sertoli cell-like, ATCC number: CRL-1715), and GC-2spd (spermatocyte-like, ATCC number: CRL-2196) were purchased from ATCC (Manassas, VA). Cells were grown in a 5% CO2 atmosphere at 37°C. TM4 was cultured in DMEM supplemented with 5% horse serum, 2.5% fetal bovine serum and 1x antibiotic-antimyotic (Cat. NO. 15240062, Life technologies). GC-1spg and GC-2spd were cultured in DMEM supplemented with 10% fetal bovine serum (Cat. No. F2442, Sigma, USA) and 1x antibiotic-antimyotic (Cat.NO. 15240062, Life technologies).
Cells were washed twice with ice-cold PBS (137 mM NaCl, 2.7 mM KCl, 10 mM Na2HPO4, and 1.8 mM KH2PO4, pH 7.4) and lysed in SDS sample buffer. Cell lysates, containing 20 μg of protein, were separated with SDS-PAGE (8%) and transferred to polyvinylidene difluoride membranes. After blocking in 5% non-fat milk in tris-buffered saline containing 0.1% Tween-20 (pH = 7.6), membranes were incubated with the appropriate primary antibodies at 4°C overnight. The primary antibodies γ-H2AX (Cat. No: 2577, Lot. No: 11, CST, USA) and Pol II (Cat. No: 05-623, Lot. No: 2397109, Millipore, USA) diluted 1:1000 in 5% bovine serum albumin (BSA, Cat. No. B2064-50G, Sigma, USA). […]

[3] = KO mice, plasma, 1.0 mg/kg single oral dose
[4] = WT mice, plasma, 1.0 mg/kg single oral dose

CC(C)[C@]12O[C@H]1[C@@H]1O[C@]13[C@]1(O[C@H]1C[C@@]1(O)C4=C(CC[C@]31C)C(=O)OC4)[C@@H]2O [LLDT-8, (5R)-5-hydroxytriptolide]
LLDT-8 levels in liver, kidney, testis and epididymis of KO mice relative to WT mice ([1]; 30 min after 1.0 mg/kg oral dose): 2–3 folds | AUC [1, 3]: 753.52 ± 76.39 [ng/ml] × h | CL (oral clearance) [1, 3]: 22.2 ± 2 mL/min/kg | Cmax [1, 3]: 57.97 ± 8.28 ng/mL | Tmax [1, 3]: 19.8 ± 6.6 min | T1/2 [1, 3]: 35.4 ± 3.6 min | CL (oral clearance) [1, 4]: 68.8 ± 8.83 mL/min/kg | Cmax [1, 4]: 29.95 ± 2.81 ng/mL | Tmax [1, 4]: 10.2 ± 0 min | T1/2 [1, 4]: 18.6 ± 1.8 min | clearance in KO mice compared to WT mice ([1]; single oral dose): marked decrease | increase in AUC in KO mice ([1]; single oral dose, KO vs WT): 3.1 folds to WT mice | increase in Cmax in KO mice ([1]; single oral dose, KO vs WT): 1.9 folds to WT mice | increase in half-life in KO mice ([1]; single oral dose, KO vs WT): 1.9 folds to WT mice | Pol II protein [2]: dose- and time-dependently reduced
